Organism: Rattus norvegicus
Assay: DrugMatrix - Regimen: Daily Repeat
Type: toxicity, organism-based, Sprague-Dawley
Design: regimen Daily Repeat, gender Male, age 6-8 weeks
Settings: in vivo, po, route oral GAVAGE, […]; for ABSOLUTE BASOPHIL / ABSOLUTE EOSINOPHIL / ABSOLUTE LYMPHOCYTE / ABSOLUTE MONOCYTE / ABSOLUTE SEGMENTED NEUTROPHIL / BASOPHIL / EOSINOPHIL / ERYTHROCYTE COUNT / HEMATOCRIT / HEMOGLOBIN / LEUKOCYTE COUNT / LYMPHOCYTE / MEAN CORPUSCULAR HEMOGLOBIN / MEAN CORPUSCULAR HEMOGLOBIN CONCENTRATION / MEAN CORPUSCULAR VOLUME / MONOCYTE / NEUTROPHIL / NUCLEATED RED BLOOD CELLS / PLATELET COUNT: tissue Blood; for ALANINE AMINOTRANSFERASE / ALBUMIN / ALKALINE PHOSPHATASE / ASPARTATE AMINOTRANSFERASE / BLOOD UREA NITROGEN / CARBON DIOXIDE / CHLORIDE / CHOLESTEROL / CREATINE PHOSPHOKINASE / CREATININE / GLUCOSE / LACTATE DEHYDROGENASE / LIPASE / PHOSPHORUS / POTASSIUM / SODIUM / TOTAL BILIRUBIN / TOTAL PROTEIN / URIC ACID: tissue Plasma
[1] = 250 mg/kg, 72 h, dose level Low, time 3 day
[2] = 250 mg/kg, 120 h, dose level Low, time 5 day
[3] = 930 mg/kg, 72 h, dose level High, time 3 day
[4] = 930 mg/kg, 120 h, dose level High, time 5 day

SMILES: CC12CCC(CC1)C(C)(C)O2 [EUCALYPTOL]
- ABSOLUTE BASOPHIL [1]: 0 CELLS/uL
- ABSOLUTE EOSINOPHIL [1]: 0 CELLS/uL
- ABSOLUTE LYMPHOCYTE [1]: 12865.33 CELLS/uL
- ABSOLUTE MONOCYTE [1]: 104 CELLS/uL
- ABSOLUTE SEGMENTED NEUTROPHIL [1]: 1797.33 CELLS/uL
- BASOPHIL [1]: 0%
- EOSINOPHIL [1]: 0%
- ERYTHROCYTE COUNT [1]: 5.22 x10E6/uL
- HEMATOCRIT [1]: 32.73%
- HEMOGLOBIN [1]: 12.97 G/DL
- LEUKOCYTE COUNT [1]: 14.77 x10E3/uL
- LYMPHOCYTE [1]: 87.33%
- MEAN CORPUSCULAR HEMOGLOBIN [1]: 24.83 pg
- MEAN CORPUSCULAR HEMOGLOBIN CONCENTRATION [1]: 39.63 G/DL
- MEAN CORPUSCULAR VOLUME [1]: 62.77 fL
- MONOCYTE [1]: 0.67%
- NEUTROPHIL [1]: 12%
- NUCLEATED RED BLOOD CELLS [1]: 0 /100WBC
- PLATELET COUNT [1]: 1143.67 x10E3/uL
- ALANINE AMINOTRANSFERASE [1]: 68.67 u/L
- ALBUMIN [1]: 4.03 G/DL
- ALKALINE PHOSPHATASE [1]: 413.33 u/L
- ASPARTATE AMINOTRANSFERASE [1]: 95.33 u/L
- BLOOD UREA NITROGEN [1]: 12.33 mg/dL
- CARBON DIOXIDE [1]: 24 mmol/L
- CHLORIDE [1]: 103.67 MEQ/L
- CHOLESTEROL [1]: 84.67 mg/dL
- CREATINE PHOSPHOKINASE [1]: 439.67 u/L
- CREATININE [1]: 0.17 mg/dL
- GLUCOSE [1]: 160.33 mg/dL
- LACTATE DEHYDROGENASE [1]: 154.67 u/L
- LIPASE [1]: 10.33 u/L
- PHOSPHORUS [1]: 12.5 mg/dL
- POTASSIUM [1]: 6.64 MEQ/L
- SODIUM [1]: 145.33 MEQ/L
- TOTAL BILIRUBIN [1]: 0.2 mg/dL
- TOTAL PROTEIN [1]: 5.53 G/DL
- URIC ACID [1]: 1.43 mg/dL
- ABSOLUTE BASOPHIL [2]: 0 CELLS/uL
- ABSOLUTE EOSINOPHIL [2]: 0 CELLS/uL
- ABSOLUTE LYMPHOCYTE [2]: 15020.67 CELLS/uL
- ABSOLUTE MONOCYTE [2]: 301.67 CELLS/uL
- ABSOLUTE SEGMENTED NEUTROPHIL [2]: 1277.67 CELLS/uL
- BASOPHIL [2]: 0%
- EOSINOPHIL [2]: 0%
- ERYTHROCYTE COUNT [2]: 5.46 x10E6/uL
- HEMATOCRIT [2]: 34.57%
- HEMOGLOBIN [2]: 14.17 G/DL
- LEUKOCYTE COUNT [2]: 16.6 x10E3/uL
- LYMPHOCYTE [2]: 90.33%
- MEAN CORPUSCULAR HEMOGLOBIN [2]: 25.97 pg
- MEAN CORPUSCULAR HEMOGLOBIN CONCENTRATION [2]: 40.97 G/DL
- MEAN CORPUSCULAR VOLUME [2]: 63.33 fL
- MONOCYTE [2]: 1.67%
- NEUTROPHIL [2]: 8%
- NUCLEATED RED BLOOD CELLS [2]: 0.67 /100WBC
- PLATELET COUNT [2]: 1304.67 x10E3/uL
- ALANINE AMINOTRANSFERASE [2]: 61 u/L
- ALBUMIN [2]: 4.2 G/DL
- ALKALINE PHOSPHATASE [2]: 377.33 u/L
- ASPARTATE AMINOTRANSFERASE [2]: 78.33 u/L
- BLOOD UREA NITROGEN [2]: 16 mg/dL
- CARBON DIOXIDE [2]: 24.33 mmol/L
- CHLORIDE [2]: 103 MEQ/L
- CHOLESTEROL [2]: 71 mg/dL
- CREATINE PHOSPHOKINASE [2]: 231.33 u/L
- CREATININE [2]: 0.17 mg/dL
- GLUCOSE [2]: 153.67 mg/dL
- LACTATE DEHYDROGENASE [2]: 170.67 u/L
- LIPASE [2]: 10 u/L
- PHOSPHORUS [2]: 12.6 mg/dL
- POTASSIUM [2]: 6.77 MEQ/L
- SODIUM [2]: 146.3 MEQ/L
- TOTAL BILIRUBIN [2]: 0.13 mg/dL
- TOTAL PROTEIN [2]: 5.97 G/DL
- URIC ACID [2]: 1.53 mg/dL
- ABSOLUTE BASOPHIL [3]: 0 CELLS/uL
- ABSOLUTE EOSINOPHIL [3]: 0 CELLS/uL
- ABSOLUTE LYMPHOCYTE [3]: 15782.67 CELLS/uL
- ABSOLUTE MONOCYTE [3]: 121.67 CELLS/uL
- ABSOLUTE SEGMENTED NEUTROPHIL [3]: 2129 CELLS/uL
- BASOPHIL [3]: 0%
- EOSINOPHIL [3]: 0%
- ERYTHROCYTE COUNT [3]: 5.63 x10E6/uL
- HEMATOCRIT [3]: 35.83%
- HEMOGLOBIN [3]: 14.2 G/DL
- LEUKOCYTE COUNT [3]: 18.03 x10E3/uL
- LYMPHOCYTE [3]: 87.67%
- MEAN CORPUSCULAR HEMOGLOBIN [3]: 25.3 pg
- MEAN CORPUSCULAR HEMOGLOBIN CONCENTRATION [3]: 39.67 G/DL
- MEAN CORPUSCULAR VOLUME [3]: 63.73 fL
- MONOCYTE [3]: 0.67%
- NEUTROPHIL [3]: 11.67%
- NUCLEATED RED BLOOD CELLS [3]: 0 /100WBC
- PLATELET COUNT [3]: 1268 x10E3/uL
- ALANINE AMINOTRANSFERASE [3]: 85.33 u/L
- ALBUMIN [3]: 4.33 G/DL
- ALKALINE PHOSPHATASE [3]: 424.33 u/L
- ASPARTATE AMINOTRANSFERASE [3]: 90.67 u/L
- BLOOD UREA NITROGEN [3]: 16.67 mg/dL
- CARBON DIOXIDE [3]: 23.33 mmol/L
- CHLORIDE [3]: 103 MEQ/L
- CHOLESTEROL [3]: 84.33 mg/dL
- CREATINE PHOSPHOKINASE [3]: 211.67 u/L
- CREATININE [3]: 0.24 mg/dL
- GLUCOSE [3]: 153.67 mg/dL
- LACTATE DEHYDROGENASE [3]: 86.67 u/L
- LIPASE [3]: 11.67 u/L
- PHOSPHORUS [3]: 12.2 mg/dL
- POTASSIUM [3]: 6.76 MEQ/L
- SODIUM [3]: 146.43 MEQ/L
- TOTAL BILIRUBIN [3]: 0.13 mg/dL
- TOTAL PROTEIN [3]: 6.03 G/DL
- URIC ACID [3]: 1.67 mg/dL
- ABSOLUTE BASOPHIL [4]: 0 CELLS/uL
- ABSOLUTE EOSINOPHIL [4]: 0 CELLS/uL
- ABSOLUTE LYMPHOCYTE [4]: 18083.67 CELLS/uL
- ABSOLUTE MONOCYTE [4]: 256.67 CELLS/uL
- ABSOLUTE SEGMENTED NEUTROPHIL [4]: 1226.33 CELLS/uL
- BASOPHIL [4]: 0%
- EOSINOPHIL [4]: 0%
- ERYTHROCYTE COUNT [4]: 5.66 x10E6/uL
- HEMATOCRIT [4]: 35.63%
- HEMOGLOBIN [4]: 14.2 G/DL
- LEUKOCYTE COUNT [4]: 19.57 x10E3/uL
- LYMPHOCYTE [4]: 92.33%
- MEAN CORPUSCULAR HEMOGLOBIN [4]: 25.1 pg
- MEAN CORPUSCULAR HEMOGLOBIN CONCENTRATION [4]: 39.87 G/DL
- MEAN CORPUSCULAR VOLUME [4]: 62.97 fL
- MONOCYTE [4]: 1.33%
- NEUTROPHIL [4]: 6.33%
- NUCLEATED RED BLOOD CELLS [4]: 0 /100WBC
- PLATELET COUNT [4]: 1326.67 x10E3/uL
- ALANINE AMINOTRANSFERASE [4]: 58 u/L
- ALBUMIN [4]: 4.17 G/DL
- ALKALINE PHOSPHATASE [4]: 302.33 u/L
- ASPARTATE AMINOTRANSFERASE [4]: 76.33 u/L
- BLOOD UREA NITROGEN [4]: 14 mg/dL
- CARBON DIOXIDE [4]: 26.33 mmol/L
- CHLORIDE [4]: 101.67 MEQ/L
- CHOLESTEROL [4]: 73 mg/dL
- CREATINE PHOSPHOKINASE [4]: 275 u/L
- CREATININE [4]: 0.22 mg/dL
- GLUCOSE [4]: 158 mg/dL
- LACTATE DEHYDROGENASE [4]: 114.33 u/L
- LIPASE [4]: 11 u/L
- PHOSPHORUS [4]: 11.8 mg/dL
- POTASSIUM [4]: 6.84 MEQ/L
- SODIUM [4]: 145.5 MEQ/L
- TOTAL BILIRUBIN [4]: 0.23 mg/dL
- TOTAL PROTEIN [4]: 5.97 G/DL
- URIC ACID [4]: 1.8 mg/dL

From ChEMBL document CHEMBL3885881, “DrugMatrix”
